# Source: publication PMC4364341, “NBD delivery improves the disease phenotype of the golden retriever model of Duchenne muscular dystrophy” (Skeletal Muscle, 2014)
# Assays:
# wild type dogs = settings: dog, in vivo
# Procedure: (§1) For mice muscles, histopathological assessment was performed as earlier described. For canine samples, CS, lateral gastrocnemius, vastus lateralis, and diaphragm muscles were assessed at the end of the 4-month treatment period when dogs were necropsied. Muscle samples were snap frozen in isopentane cooled in liquid nitrogen, and stored at -80°C. A total of 16 dogs (3 wild type, 2 wild type + NBD, 5 untreated GRMD, and 6 GRMD + NBD) were assessed. Serial frozen sections (n = 10 per dog) from each muscle were processed. For each stain, quantitation was performed on three 10 μm sections of each muscle. To determine the degree of inflammation, cells that stained with a canine specific macrophage PM2K antibody were quantitated. Muscle damage was assessed by scoring for IgG-positive myofibers using immunofluorescence, and necrotic foci by hematoxylin and eosin (H&E) staining. Centrally located nuclei (CLN) were quantified on H&E sections to determine the degree of regeneration. Staining was quantitated on an Olympus BX51 microscope with Microsuite Five software (Olympus Soft Imaging Solutions GmbH, Center Valley, PA, USA). A composite score for all four muscles, reflecting muscle injury, inflammation, and regeneration, was determined.
# mdx mice [1] = experiment: Histopathology of quadriceps muscles of NBD-treated mdx mice; assay type: in vivo, mouse; settings: 4 weeks, Quad muscles
# Procedure: Mdx mice (C57BL/10ScSn-DMD^mdx/J) were purchased from The Jackson Laboratory and housed in the animal facility (University Laboratory Animal Resources, ULAR) at The Ohio State University under conventional conditions with constant temperature and humidity, and fed with standard diet. Treatment of mice was performed between 5 and 7 weeks of age as earlier described, and in accordance with the guidelines of the Institutional Animal Care and Use Committee at The Ohio State University. Efficacy of NBD was assessed comparing four groups (n = 5 each) of mdx mice treated either with vehicle or 3, 2, or 1 × per week with NBD by intraperitoneal (IP) delivery. Two separate groups (n = 10) were dosed subcutaneously (SQ) with vehicle or NBD, and finally two groups (n = 5) were treated with vehicle or NBD by intravenous (IV) delivery. Vascular access ports (VAP) were placed subcutaneously over the dorsal torso and a catheter was surgically inserted into the jugular vein. The catheter was kept clear by a pre- and post-wash with heparin.
# as §1, with “Serial frozen sections (n = 10 per dog) from each muscle were processed.” left out, “A composite score for all four muscles, reflecting muscle injury, inflammation, and regeneration, was determined.” left out
# mdx mice [2] = settings: cited from earlier work
# From the text: […] […] Our ability to collectively achieve such a benefit in GRMD dogs, as well as in mdx diaphragm, [9, 13] and dko hearts, supports the pre-clinical efficacy of NBD. Due to interspecies differences among mice, dogs, and humans, it is difficult to say e ...
# GRMD dogs = experiment: Cranial sartorius (CS) circumference, GRMD dogs; assay type: in vivo, dog; settings: age 6 months, NBD 10 mg/kg IV 3x weekly for 4 months, n = 6
# From the text: We have previously shown that the CS muscle undergoes dramatic hypertrophy in GRMD dogs and that this hypertrophy tracks with postural abnormalities. Accordingly, we use CS circumference measured at surgery during routine biopsy as a surrogate for muscle hypertrophy and associated postural changes in GRMD [24]. Dogs were anesthetized (above), and an incision was made over the cranial aspect of the thigh. In advance of biopsy, the CS muscle was isolated. Nylon suture was placed around the muscle at approximately midsection and tightened so as to snugly encircle the muscle belly. The two ends of the suture were secured with a pair of hemostats and then cut on the muscle side of the hemostat. The length in mm was divided by body mass in kg (mm/kg). An average of two measurements was recorded.
# [3] = dog, in vivo, iv, 10 mg/kg
# Procedure: In addition to efficacy, we were interested in examining the safety profile of NBD, since long-term dosing in any animal model had yet to be performed. Blood samples at pre-dose, mid dose, and terminal dose were obtained for hematology and serum chemistry analysis. […] Supplementary file 2044-5040-4-18-S2.jpeg: Additional file 2: Figure S2 Hematologic changes in NBD-treated dogs. Serum was prepared from blood samples obtained at indicated time points prior to and following dosing with NBD in wild type and GRMD dogs. Serum samples were analyzed for complete blood counts (CBC). The graphs show results for white blood cells, red blood cells, and platelet counts. Click here for file Supplementary file 2044-5040-4-18-S3.jpeg: Additional file 3: Figure S3 Clinicopathologic changes in NBD-treated dogs. Serum was prepared from blood samples obtained at indicated time points prior to and following dosing with NBD in wild type and GRMD dogs. Serum samples were analyzed for ALT, AST, GGT, bilirubin, creatinine, potassium, and creatine kinase. Click here for file
# wild type and GRMD dogs = settings: dog, in vivo
# From the text: Necropsies were completed on all six of the NBD-treated GRMD dogs and two of the wild type dogs. Sections of kidney, liver, spleen, lung, heart (right and left ventricle), popliteal lymph node, adrenal gland, thyroid, duodenum, large intestine, pancreas, stomach, and cerebrum were collected and fixed in 10% buffered formalin. Tissues were sent to Histo-Scientific Research Laboratories in Frederick, MD, USA, a contract research laboratory where they were processed, embedded in paraffin, sectioned, and stained with H&E. An American College of Veterinary Pathology-certified pathologist evaluated slides.
sequence,measurement,setting,value
"TALDWSWLQTE [NBD, NBD peptide (…) fused to an Antennapedia protein transduction domain]",Histopathological lesions in NBD treated versus untreated wild type dogs,wild type dogs,negligible
same,Histopathologic improvement with reduced treatment frequencies,"mdx mice [1]; IP 10 mg/kg, 2x or 1x per week compared to 3x per week, n = 5 per group",less pronounced
same,Histopathologic improvement after intravenous dosing,"mdx mice [1]; IV via VAP, 10 mg/kg 3x weekly, n = 5 per group",significant histopathologic improvement
same,Reduction of muscle inflammation and necrosis after subcutaneous dosing,"mdx mice [1]; SQ 10 mg/kg 3x weekly, n = 10 per group",no such improvements were observed
same,Efficacy on dose reduction,"mdx mice [2]; IP 3x per week, concentrations of NBD reduced from 10 to 2 mg/kg",efficacy was lost
same,"Functional improvement, mdx diaphragm",mdx mice [2]; NBD-treated mdx mice,43%
same,CS Circumference,GRMD dogs,3.67 ± 0.65 mm/kg
same,Hematology and serum chemistry analysis,[3],no adverse effects
same,Necropsy findings,wild type and GRMD dogs,histopathological changes related to NBD
